The results in this text go back to US11591335B2, “Bicyclic pesticidal compounds” (BASF SE, priority 2017, dated 2023).

Holding throughout (type): in vivo
In one data set the test system is Plutella xylostella. Kind of data set: Diamond back moth (Plutella xylostella), cabbage leaf dip test. The following applies: foliar, 3rd instar larvae, 72 hours after treatment, read-out: mortality in comparison with untreated controls. As for the experimental part: (§1) The active compound is dissolved at the desired concentration in a mixture of 1:1 (vol:vol) distilled water: acetone. Surfactant (Kinetic® HV) is added at a rate of 0.01% (vol/vol). The test solution is prepared at the day of use.
Leaves of cabbage were dipped in test solution and air-dried. Treated leaves were placed in petri dishes lined with moist filter paper and inoculated with ten 3rd instar larvae. Mortality was recorded 72 hours after treatment. Feeding damages were also recorded using a scale of 0-100%.

The next data set concerns Anthonomus grandis. Kind of data set: Boll weevil (Anthonomus grandis) control, microtiter plate insect diet test. The following applies: 120 h, egg and larval mortality after 5 days, read-out: mortality in comparison with untreated controls. The method, then: For evaluating control of boll weevil (Anthonomus grandis) the test unit consisted of 96-well-microtiter plates containing an insect diet and 5-10 A. grandis eggs.
The compounds were formulated using a solution containing 75% v/v water and 25% v/v DMSO. Different concentrations of formulated compounds were sprayed onto the insect diet at 5 μl, using a custom built micro atomizer, at two replications.
After application, microtiter plates were incubated at about 25±1° C. and about 75±5% relative humidity for 5 days. Egg and larval mortality was then visually assessed.

Another data set has as its system Myzuspersicae. Kind of data set: Green peach aphid (Myzuspersicae) control through systemic means, artificial diet under membrane. The following applies: Myzus persicae, 72 h, adult aphids on treated diet, 3 days, read-out: mortality in comparison with untreated controls. From the text: For evaluating control of green peach aphid (Myzuspersicae) through systemic means the test unit consisted of 96-well-microtiter plates containing liquid artificial diet under an artificial membrane.
The compounds were formulated using a solution containing 75% v/v water and 25% v/v DMSO. Different concentrations of formulated compounds were pipetted into the aphid diet, using a custom built pipetter, at two replications.
After application, 5-8 adult aphids were placed on the artificial membrane inside the microtiter plate wells. The aphids were then allowed to suck on the treated aphid diet and incubated at about 23±1° C. and about 50±5% relative humidity for 3 days. Aphid mortality and fecundity was then visually assessed.

The test system of a further data set is Heliothis virescens. Kind of data set: Tobacco budworm (Heliothis virescens) control, microtiter plate insect diet test. The following applies: 120 h, egg and larval mortality after 5 days, read-out: mortality in comparison with untreated controls. As for the experimental part:
For evaluating control of tobacco budworm (Heliothis virescens) the test unit consisted of 96-well-microtiter plates containing an insect diet and 15-25 H. virescens eggs.
The compounds were formulated using a solution containing 75% v/v water and 25% v/v DMSO. Different concentrations of formulated compounds were sprayed onto the insect diet at 10 μl, using a custom built micro atomizer, at two replications.
After application, microtiter plates were incubated at about 28±1° C. and about 80±5% relative humidity for 5 days. Egg and larval mortality was then visually assessed.

Another data set has as its system Spodoptera Eridania. Kind of data set: Southern armyworm (Spodoptera Eridania), sprayed lima bean plants. Conditions: 96 h, larvae, 4 days after treatment, read-out: mortality in comparison with untreated controls. As for the experimental part: The active compounds were formulated by a Tecan liquid handler in 100% cyclohexanone as a 10,000 ppm solution supplied in tubes. The 10,000 ppm solution was serially diluted in 100% cyclohexanone to make interim solutions. These served as stock solutions for which final dilutions were made by the Tecan in 50% acetone:50% water (v/v) into 10 or 20 ml glass vials. A nonionic surfactant (Kinetic®) was included in the solution at a volume of 0.01% (v/v). The vials were then inserted into an automated electrostatic sprayer equipped with an atomizing nozzle for application to plants/insects.
Lima bean plants (variety Sieva) were grown 2 plants to a pot and selected for treatment at the 1st true leaf stage. Test solutions were sprayed onto the foliage by an automated electrostatic plant sprayer equipped with an atomizing spray nozzle. The plants were dried in the sprayer fume hood and then removed from the sprayer. Each pot was placed into perforated plastic bags with a zip closure. About 10 to 11 armyworm larvae were placed into the bag and the bags zipped closed. Test plants were maintained in a growth room at about 250C and about 20-40% relative humidity for 4 days, avoiding direct exposure to fluorescent light (24 hour photoperiod) to prevent trapping of heat inside the bags. Mortality and reduced feeding were assessed 4 days after treatment, compared to untreated control plants.

Another data set has as its system Bemisia argentifolii. Kind of data set: Silverleaf whitefly (Bemisia argentifolii), sprayed cotton plants. Conditions: 72 h, adults, 3 days after treatment, read-out: mortality in comparison with untreated controls. As for the experimental part: The active compounds were formulated by a Tecan liquid handler in 100% cyclohexanone as a 10,000 ppm solution supplied in tubes. The 10,000 ppm solution was serially diluted in 100% cyclohexanone to make interim solutions. These served as stock solutions for which final dilutions were made by the Tecan in 50% acetone:50% water (v/v) into 5 or 10 ml glass vials. A nonionic surfactant (Kinetic®) was included in the solution at a volume of 0.01% (v/v). The vials were then inserted into an automated electrostatic sprayer equipped with an atomizing nozzle for application to plants/insects.
Cotton plants at the cotyledon stage (one plant per pot) were sprayed by an automated electrostatic plant sprayer equipped with an atomizing spray nozzle. The plants were dried in the sprayer fume hood and then removed from the sprayer. Each pot was pla-ced into a plastic cup and about 10 to 12 whitefly adults (approximately 3-5 days old) were introduced. The insects were collected using an aspirator and a nontoxic Tygon® tubing connected to a barrier pipette tip. The tip, containing the collected insects, was then gently inserted into the soil containing the treated plant, allowing insects to crawl out of the tip to reach the foliage for feeding. Cups were covered with a reusable screened lid. […] Mortality was assessed 3 days after treatment, compared to untreated control plants.

The subject of the next data set is Megoura viciae. Kind of data set: Vetch aphid (Megoura viciae) control, broad bean leaf disk test. Conditions: foliar, 120 h, adult aphids on treated leaf disks, 5 days, read-out: mortality in comparison with untreated controls. As for the experimental part:
For evaluating control of vetch aphid (Megoura viciae) through contact or systemic means the test unit consisted of 24-well-microtiter plates containing broad bean leaf disks.
The compounds were formulated using a solution containing 75% v/v water and 25% v/v DMSO. Different concentrations of formulated compounds were sprayed onto the leaf disks at 2.5 μl, using a custom built micro atomizer, at two replications.
After application, the leaf disks were air-dried and 5-8 adult aphids placed on the leaf disks inside the microtiter plate wells. The aphids were then allowed to suck on the treated leaf disks and incubated at about 23±1° C. and about 50±5% relative humidity for 5 days. Aphid mortality and fecundity was then visually assessed.

In a further data set the test system is Aphis craccivora. Kind of data set: Cowpea aphid (Aphis craccivora), sprayed potted cowpea plants. Conditions: after 72 hours, read-out: mortality in comparison with untreated controls. The method, then: as §1
Potted cowpea plants were colonized with approximately 30-50 aphids of various stages by manually transferring a leaf tissue cut from infested plant 24 hours before application. Plants were sprayed with the test solutions using a DeVilbiss® hand atomizer at 20-30 psi (=1.38 to 2.07 bar) after the pest population has been checked. Treated plants are maintained on light carts at about 25-26° C. Percent mortality was assessed after 72 hours.

Another data set concerns Nephotettix virescens. Kind of data set: Rice green leafhopper (Nephotettix virescens), sprayed rice seedlings. The following applies: adults, after 72 hours, read-out: mortality in comparison with untreated controls. The method, then: Four to five-week old rice seedlings with cut upper leaf portion were cleaned and washed 24 hours before spraying. The active compounds were formulated in 1:1 acetone:water (vol:vol), and 0.01% vol/vol surfactant (Kinetic® HV) was added. Potted rice seedlings were sprayed with 5-6 ml test solution, air dried, covered with Mylar cages and inoculated with 10 adults. Treated rice plants were kept at about 28-29° C. and relative humidity of about 50-60%. Percent mortality was recorded after 72 hours.

A further data set relates to Nezara viridula. Kind of data set: Green soldier stink bug (Nezara viridula), sprayed soybean pods in Petri dishes. The following applies: 120 h, late 3rd instar, after 5 days, read-out: mortality in comparison with untreated controls. The method, then:
The active compound is dissolved at the desired concentration in a mixture of 1:1 (vol:vol) distilled water: aceteone. Surfactant (Kinetic® HV) is added at a rate of 0.01% (vol/vol). The test solution is prepared at the day of use.
Soybean pods were placed in 90×50 mm glass Petri dishes lined with moist filter paper and inoculated with ten late 3rd instar N. viridula. Using a hand atomizer, an approximately 2 ml solution is sprayed into each Petri dish. Treated cups were kept at about 25-26° C. and relative humidity of about 65-70%. Percent mortality was recorded after 5 days.

Another data set deals with Nilaparvata lugens. Kind of data set: Rice brown plant hopper (Nilaparvata lugens), sprayed rice seedlings. The following applies: adults, after 72 hours, read-out: mortality in comparison with untreated controls. As for the experimental part: Four to five-week old rice seedlings were cleaned and washed 24 hours before spraying. The active compounds were formulated in 1:1 acetone:water (vol:vol) and 0.01% vol/vol surfactant (Kinetic® HV) was added. Potted rice seedlings were sprayed with 5-6 ml test solution, air dried, covered with Mylar cages and inoculated with 10 adults. Treated rice plants were kept at about 28-29° C. and relative humidity of about 50-60%. Percent mortality was recorded after 72 hours.

The test system of another data set is Chilo suppressalis. Kind of data set: Striped stem borer (Chilo suppressalis), sprayed petriplates with rice straw. The following applies: 300 ppm; first-instar larvae, 72 hours after treatment. As for the experimental part:
as §1
Ten first-instar larvae are allowed to crawl on sprayed petriplates for 1 minute and then provided with one freshly cut rice straw per plate. After 10 minutes when all of the larvae are inside the straw will then be covered with Petri lid. Percent mortality is recorded after 72 hours after treatment.

Molecules are shown by their SMILES. A value given as a limit tells only on which side of the number the result lay.

On to `CCS(=O)(=O)c1ccc(-n2cnc(C(F)(F)F)n2)nc1-c1cn2c(=O)n(C)c(C(F)(F)F)cc2n1` [I-1-1, 2-[3-ethylsulfonyl-6-[3-(trifluoromethyl)-1,2,4-triazol-1-yl]-2-pyridyl]-6-methyl-7-(trifluoromethyl)imidazo[1,2-c]pyrimidin-5-one], for which the mortality at 300 ppm in the data set with Plutella xylostella, in the data set with Spodoptera Eridania and with Bemisia argentifolii was more than 75% in each case. In addition, the mortality at 2500 ppm with Anthonomus grandis, in the data set with Myzuspersicae and in the data set on Heliothis virescens was more than 75% throughout.

As to `CCS(=O)(=O)c1cc(N2CCCC2=O)cnc1-c1cn2c(=O)n(C)c(C(F)(F)F)cc2n1` [I-1-3, 2-[3-ethylsulfonyl-5-(2-oxopyrrolidin-1-yl)-2-pyridyl]-6-methyl-7-(trifluoromethyl)imidazo[1,2-c]pyrimidin-5-one], the mortality at 2500 ppm in the data set with Megoura viciae, in the data set with Anthonomus grandis, in the data set with Myzuspersicae and in the data set on Heliothis virescens was more than 75% each time. The mortality at 300 ppm in the data set with Aphis craccivora, with Nephotettix virescens, in the data set with Nezara viridula, with Nilaparvata lugens and in the data set with Spodoptera Eridania was more than 75% each time.

Regarding `CCS(=O)(=O)c1cc(-c2ncccc2F)cnc1-c1cn2c(=O)n(C)c(C(F)(F)F)cc2n1` [I-1-4], in the data set with Chilo suppressalis, the “mortality in comparison with untreated controls” value is reported as “over 75%”.
